In paper PMC9964544, “Evidence of Insulin-Sensitizing and Mimetic Activity of the Sesquiterpene Quinone Avarone, a Protein Tyrosine Phosphatase 1B and Aldose Reductase Dual Targeting Agent from the Marine Sponge Dysidea avara” (Pharmaceutics, 2023):
“Also recorded” adds a separate entry of the source.

How the values were obtained:
C2C12 cells [1] = assay: Akt phosphorylation in C2C12 cells by Western blot; format: cell-based; conditions: 30 min, serum-starved C2C12
Description: To evaluate the impact of avarone (2) on the insulin signaling pathway, C2C12 cells were plated on P35 dishes and grown until 70% confluence. Then, cells were washed with phosphate-buffered saline (PBS) and incubated for 24 h in the presence of a starvation medium (DMEM high glucose containing 2 mM glutamine, 100 U/mL of penicillin, and 100 μg/mL of streptomycin). After this time, cells were stimulated for 30 min with 10 nM insulin (Humulin R, Ely Lilly, Italy) with avarone (2) or the insulin-avarone combination. […] Phosphorylation levels of the insulin receptor β chain and of the kinase Akt were evaluated using specific antibodies: IR β subunit, clone CT-3 (MABS65) was from Santa Cruz Biotechnology (Santa Cruz, CA, USA); pIR β subunit, Y1162/1163 (sc-25103-R) was from Merck-Millipore (Burlington, MA, USA). […] Quantitation of the images obtained was carried out using iBright Analysis Software (Thermo Fisher Scientific 168 Third Avenue Waltham, MA, USA, 02451). Glucose uptake was evaluated as previously described. […] Intrinsic and 2-NBDG-derived cell fluorescences were determined using a flow cytometer (FACSCanto II, BD Biosciences, San Jose, CA, USA). […] Quantitative analysis was carried out using FlowJo software (FlowJo^TM v10. BD FlowJo™ Software for Windows Version 10. Ashland, OR: Becton, Dickinson and Company; 2021). […]

C2C12 cells [2] = assay: Seahorse XFe96 Mito Stress Test in C2C12 cells; format: cell-based; conditions: C2C12 treated for 30 min
Description: C2C12 cells (3 × 10^4 cells/well) were placed in XFe96 cell culture plates. After 24 h of incubation at 37 °C, cell growth medium was substituted with an XF base medium supplemented with 2 mM glutamine, 1 mM sodium pyruvate, and 10 mM glucose, pH 7.4. The plate was then transferred in a non-CO2 incubator for 1 h at 37 °C to pre-equilibrate the cells before analysis. An XF Mito Stress Test was performed to assay the cells’ ability to exploit mitochondrial oxidative metabolism, according to the manufacturer’s instructions. The oxygen consumption rate (OCR) was evaluated after the injection of a sequence of compounds that interfere with the electron transport chain: oligomycin (1 μM), carbonyl cyanide-4 (trifluoromethoxy) phenylhydrazone (FCCP) (1 μM), and Rotenone/Antimycin A (0.5 μM). All data were normalized on the protein content of each well.
Figure 10 Results of Mito Stress Test assay. (A) C2C12 cells were subjected to Seahorse XFe96-Mito Stress Test analysis to evaluate oxygen consumption rate (OCR) in real time. OCR values were normalized on protein content. (B) Basal respiration, ATP-linked OCR, spare capacity, maximal respiration, and proton leak were calculated using data obtained from OCR plot after the administration of the adenosine triphosphate ATP synthase inhibitor oligomycin, the proton uncoupler carbonylcyanide p-trifluoromethoxyphenylhydrazone (FCCP), and the combination of the respiratory complex I inhibitor rotenone and the respiratory complex III inhibitor antimycin A. Each point reported in the OCR plot represents the medium value ± SEM obtained from independent replicates (n = 3 or 4). One-way ANOVA with Dunnett’s correction was used to assess differences in experimental features by using Prism 8 software (GraphPad). Statistical significance is annotated as follows: * p ≤ 0.01, ** p ≤ 0.001, *** p ≤ 0.0001, (t-test); ns, not significant; FC, fold change.

CC1=CCC[C@H]2[C@](C)(CC3=CC(=O)C=CC3=O)[C@@H](C)CC[C@]12C [avarone (2), avarone]
Akt phosphorylation levels, insulin-avarone combination (C2C12 cells [1]; 25 µM avarone + 10 nM insulin): values higher than those observed after treatment with insulin alone | Akt phosphorylation levels (C2C12 cells [1]; 25 µM avarone alone): increase in Akt phosphorylation levels similar to that induced by insulin | basal respiration (OCR) (C2C12 cells [2]): does not alter basal respiration | maximal respiration (C2C12 cells [2]): slightly increases; also recorded: increases | oxygen-dependent ATP production (C2C12 cells [2]): does not impair the oxygen-dependent ATP production | proton leak rate (C2C12 cells [2]): without enhancing the proton leak rate | spare capacity (C2C12 cells [2]): slightly increases; also recorded: increases
